In series [1] the test system is indigenous bacteria in human sebum. As to the kind of experiment: Human sebum assay, bactericidal activity. The series is classed as cell-based. The note with it: 250 Micromolar peptide, 150 minutes at 37° C; none: 8500000. As for the experimental part:
Sebum was harvested from healthy human volunteers using Biore® deep cleansing pore strips. The seburn plugs were collected in a microtube with a tweezer. […] The seburn was resusupended in 1% TSB, 10 mM Na2HPO4 into fine particulate suspension. The assay was performed in a total volume of 50 microliters. […] The samples were incubated for 150 minutes at 37° C. To determine the number of viable bacteria, a serial dilution was prepared (10 fold dilutions to 1/100000). […] After incubation for 72 hours bacterial growth was documented (Alpha Innotech documentation system). The number of CFU/milliliter was determined by counting bacteria colonies. The efficacy of a peptide is indicated by the reduction of CFU/milliliter compared to the untreated control.

The test system of a further series is human red blood cells. It is filed as cell-based. The note with it: red cells of human, 100 Micromolar. As for the experimental part: Hemoglobin-release assays with human red blood cells (RBC) were performed to determine the hemolytic activity of granulysin peptides. Human RBCs (San Diego Blood Bank, San Diego, Calif.) were washed three times in PBS buffer (8 mM Na2HPO4, 1.5 mM KH2PO4, 140 mM NaCl and 2.7 mM KCl, pH 7.4), resuspended in PBS to the concentration of 5% (v/v). The RBC were then exposed to different peptide compositions at various concentrations (100-6.25 micromolar) and incubated at 37° C. for 60 minutes in a total volume of 120 microliters. Every experiment included a negative control without peptide and maximum control treated with 5% TX-100 for complete hemoglobin release. Samples were centrifuged for 1 minute at 13,000 g to remove debris and intact cells. The hemoglobin-containing supernatant was removed and transferred to a microwell plate. Hemoglobin release was quantified at A540 using a Versamax plate reader (Molecular Devices). The degree of hemolysis is expressed as percentage of hemolysis compared to the […], using the following formula: % hemolysis=(sample−neg. control)/(max. control−neg. control)×100.

Another series has as its system S. dublin (Lane). Put plainly: Broth microdilution assay for MIC, Table 4A. It is filed as cell-based, Salmonella dublin. The settings on record: 3 log or greater reduction in bacterial growth over 16 hours. As for the experimental part:
S. dublin (Lane), S. aureus (Rosenbach), P. acnes, ATCC 6919, E. coli K12 TOP10, and E. coli K12 55099 (protease neg.) bacterial strains were tested in the microbial inhibition assays described hereafter. The S. dublin (Lane), and S. aureus (Rosenbach) strains are available from ATCC (Staphylococcus aureus subsp. aureus Rosenbach (Number: 13150) and Salmonella choleraesuis serotype dublin (Number: 39184)). The strain of P. acnes was purchased from ATCC (strain #6919) (Manassas, Va.). The E. coli K12 strains TOP 10 and 55099 were purchased from Invitrogen (Carlsbad, Calif.) and ATCC respectively. HeLa cells were purchased from ATCC (CCL2). Tryptic soy broth (TSB), Brucella broth, reinforced Clostridial broth and agar were purchased from Becton & Dickinson (distributed by VWR, West Chester, Pa.). All plastic consumables were purchased from VWR (West Chester, Pa.). […]
The minimum inhibitory concentration (MIC) of peptide compositions for S. aureus, S. dublin and E. coli was determined in a broth microdilution assay. […] The MIC for each peptide for each microorganism was determined by three methods. The growth of bacteria was directly determined by measuring the absorption at 600 nm using a Versamax microplate reader (Molecular Devices). […] After incubation for 16 hours at 37° C. bacterial growth was evaluated and documented (Alpha Innotech gel documentation system).

Values after ≈ are worked out from the molar mass of the structure shown.

On to `CSCC[C@@H](NC(=O)[C@@H](Cc1ccccc1)NC(=O)[C@@H](CC(N)=O)NC(=O)[C@@H](CCCNC(=N)N)NC(=O)[C@@H](CO)NC(=O)[C@@H](Cc1c[nH]c2ccccc12)NC(=O)[C@@H](CC(=O)O)NC(=O)[C@@H](CCCNC(=N)N)NC(=O)[C@@H](Cc1c[nH]c2ccccc12)NC(=O)[C@@H](CCCNC(=N)N)NC(=O)[C@@H](CO)NC(=O)[C@@H](CCCNC(=N)N)NC(=O)CNC(=O)[C@H](NC(=O)[C@@H](CCCNC(=N)N)NC(=O)[C@@H](CO)NC(=O)[C@H](NC(=O)[C@@H](CCCNC(=N)N)NC(=O)[C@H](NC(C)=O)[C@H](C)O)C(C)C)[C@H](C)O)C(=O)N[C@H](CCCNC(=N)N)C(=O)N[C@H](C)C(=O)N[C@H](C)C(N)=O` [Peptide 30, Ac-trvsrtgrsrwrdwsrnfmraa-NH2], for which, in series [1], the “Bactericidal activity for indigenous bacteria in human sebum, cfu/ml” value is reported as 1000 cfu/ml. The “Hemolytic effect on human red blood cells” value with human red blood cells is recorded as 0%. Moreover, the “Minimum inhibitory concentration (MIC) S. dublin” value with S. dublin (Lane) is 4 µM (≈ 11.2 µg/mL).

The values above are taken from patent US20050282755A1, “Compositions having antimicrobial activity and uses thereof” (priority 2004, published 2005).
